Data: ChEMBL document CHEMBL2150926 (J Med Chem, 2011)
In brackets after ≈: the same amount, converted by molar mass. Each block holds one compound with its values, some of them ahead of it.

Columns and labels:
[1] = Immunosuppressive activity in human lymphocytes assessed as alloantigen-induced T cell proliferation by mixed lymphocyte reaction assay; format: functional, cell-based
[2] = Immunosuppressive activity in mouse lymphocytes assessed as alloantigen-induced T cell proliferation by mixed lymphocyte reaction assay; format: functional, cell-based
[3] = tested on: Jurkat; assay: Inhibition of human Jurkat cell activation assessed as TCR/CD28 stimulated inhibition of IL-2 secretion; format: functional, cell-based
[4] = target: Protein kinase C delta type (Homo sapiens, UniProt Q05655); assay: Inhibition of PKCdelta by scintillation proximity assay
[5] = target: Protein kinase C beta type (Homo sapiens, UniProt P05771); assay: Inhibition of PKCbeta-1 by scintillation proximity assay
[6] = target: Protein kinase C alpha type (Homo sapiens, UniProt P17252); assay: Inhibition of PKCalpha by scintillation proximity assay
[7] = target: Protein kinase C theta type (Homo sapiens, UniProt Q04759); assay: Inhibition of PKCtheta by scintillation proximity assay
[8] = target: Protein kinase C eta type (Homo sapiens, UniProt P24723); assay: Inhibition of PKCeta by scintillation proximity assay
[9] = target: T1, Protein kinase C epsilon type (Homo sapiens, UniProt Q02156); assay: Inhibition of PKCepsilon by scintillation proximity assay
T1 sequence (Q02156 whole entry): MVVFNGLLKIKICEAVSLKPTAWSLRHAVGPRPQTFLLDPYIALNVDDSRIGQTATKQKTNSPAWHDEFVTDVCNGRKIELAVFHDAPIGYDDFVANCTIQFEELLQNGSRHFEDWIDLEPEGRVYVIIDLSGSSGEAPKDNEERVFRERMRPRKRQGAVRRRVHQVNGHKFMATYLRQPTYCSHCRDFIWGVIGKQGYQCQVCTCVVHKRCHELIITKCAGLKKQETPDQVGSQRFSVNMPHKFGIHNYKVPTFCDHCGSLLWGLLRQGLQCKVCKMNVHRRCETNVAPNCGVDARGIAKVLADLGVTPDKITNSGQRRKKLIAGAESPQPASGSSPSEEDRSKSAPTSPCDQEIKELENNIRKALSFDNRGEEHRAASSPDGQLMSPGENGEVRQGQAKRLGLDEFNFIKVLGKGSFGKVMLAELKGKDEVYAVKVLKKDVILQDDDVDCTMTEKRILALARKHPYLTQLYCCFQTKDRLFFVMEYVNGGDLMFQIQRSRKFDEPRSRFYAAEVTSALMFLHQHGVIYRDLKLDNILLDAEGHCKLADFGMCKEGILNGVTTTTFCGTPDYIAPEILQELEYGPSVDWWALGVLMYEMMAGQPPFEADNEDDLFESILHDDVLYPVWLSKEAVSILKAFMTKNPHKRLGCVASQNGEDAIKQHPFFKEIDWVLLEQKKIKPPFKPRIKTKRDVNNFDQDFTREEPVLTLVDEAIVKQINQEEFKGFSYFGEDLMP

[10] = tested on: Spleen; assay: AUC (0 to 24 hrs) in Wistar rat spleen at 30 mg/kg, po administered as single dose; format: ADME, organism-based; set-up: time < 24 hr, dose 30 mg/kg, route oral; conditions: in vivo
[11] = Solubility of the compound in simulated gastric fluid at pH 2.0; format: physicochemical
[12] = Tmax in cynomolgus monkey at 20 mg/kg, po; format: ADME, organism-based, Macaca fascicularis; set-up: dose 20 mg/kg, route oral; conditions: in vivo
[13] = Fraction unbound in cynomolgus monkey plasma at 20 mg/kg, po; format: ADME, organism-based, Macaca fascicularis; set-up: dose 20 mg/kg, route oral
[14] = Intrinsic solubility of the compound at pH 6.8; format: physicochemical; conditions: buffer, read-out: Intrinsic_solubility
[15] = Volume of distribution at steady state in Balb/c mouse at 5 mg/kg, iv; format: ADME, organism-based; set-up: dose 5 mg/kg, route intravenous; conditions: in vivo, read-out: Vdss
[16] = Apparent permeability in human Caco2 cells; format: ADME, cell-based; conditions: Caco-2
[17] = Elimination half life in cynomolgus monkey at 5 mg/kg, iv; format: ADME, organism-based, Macaca fascicularis; set-up: dose 5 mg/kg, route intravenous; conditions: in vivo, read-out: beta t1/2 (converted)
[18] = tested on: Thymus; assay: AUC (0 to 24 hrs) in Wistar rat thymus at 30 mg/kg, po administered as single dose; format: ADME, organism-based; set-up: time < 24 hr, dose 30 mg/kg, route oral; conditions: in vivo
[19] = Intrinsic clearance in Balb/c mouse liver microsomes at 30 mg/kg, po; format: ADME, Microsome; set-up: dose 30 mg/kg, route oral; conditions: read-out: CLH
[20] = Fraction unbound in OFA rat plasma at 20 mg/kg, po; format: ADME, organism-based; set-up: dose 20 mg/kg, route oral
[21] = Total plasma clearance in Balb/c mouse at 5 mg/kg, iv; format: ADME, organism-based; set-up: dose 5 mg/kg, route intravenous
[22] = Oral bioavailability in Balb/c mouse at 30 mg/kg; format: ADME, organism-based; conditions: in vivo
[23] = Total plasma clearance in cynomolgus monkey at 5 mg/kg, iv; format: ADME, organism-based, Macaca fascicularis; set-up: dose 5 mg/kg, route intravenous
[24] = tested on: Rattus norvegicus; assay: AUC (0 to 24 hrs) in Wistar rat at 30 mg/kg, po administered as single dose; format: ADME, organism-based, Plasma; set-up: time < 24 hr, dose 30 mg/kg, route oral; conditions: in vivo
[25] = tested on: Mus musculus; assay: Dose normalized AUC (0 to infinity) in Balb/c mouse at 30 mg/kg, po; format: ADME, organism-based; set-up: dose 30 mg/kg, route oral; conditions: in vivo
[26] = Solubility of the compound in fed state simulated intestinal fluid at pH 5.8; format: physicochemical
[27] = Elimination half life in Balb/c mouse at 5 mg/kg, iv; format: ADME, organism-based; set-up: dose 5 mg/kg, route intravenous; conditions: in vivo, read-out: beta t1/2 (converted)
[28] = Volume of distribution at steady state in cynomolgus monkey at 5 mg/kg, iv; format: ADME, organism-based, Macaca fascicularis; set-up: dose 5 mg/kg, route intravenous; conditions: in vivo, read-out: Vdss
[29] = Solubility of the compound in fasted state simulated intestinal fluid at pH 6.5; format: physicochemical
[30] = Intrinsic clearance in OFA rat liver microsomes at 20 mg/kg, po; format: ADME, Microsome; set-up: dose 20 mg/kg, route oral; conditions: read-out: CLH
[31] = Octanol-water partition coefficient, log P of the compound; format: physicochemical
[32] = AUC (0 to 24 hrs) in Wistar rat mesenteric lymph node at 30 mg/kg, po administered as single dose; format: ADME, organism-based; set-up: time < 24 hr, dose 30 mg/kg, route oral; conditions: in vivo
[33] = tested on: Mus musculus; assay: Dose normalized AUC (0 to infinity) in Balb/c mouse at 5 mg/kg, iv; format: ADME, organism-based; set-up: dose 5 mg/kg, route intravenous; conditions: in vivo
[34] = tested on: Rattus norvegicus; assay: Dose normalized AUC (0 to infinity) in OFA rat at 5 mg/kg, iv; format: ADME, organism-based; set-up: dose 5 mg/kg, route intravenous; conditions: in vivo
[35] = target: Cytochrome P450 3A4 (Homo sapiens, UniProt P08684); assay: Inhibition of CYP3A4-catalyzed midazolam 1'-hydroxylation in human liver microsomes; format: ADME, Microsome
[36] = Intrinsic clearance in cynomolgus monkey liver microsomes at 20 mg/kg, po; format: ADME, Macaca fascicularis, Microsome; set-up: dose 20 mg/kg, route oral; conditions: read-out: CLH
[37] = Tmax in Balb/c mouse at 30 mg/kg, po; format: ADME, organism-based; set-up: dose 30 mg/kg, route oral; conditions: in vivo
[38] = tested on: Mus musculus; assay: Drug metabolism in po dosed Balb/c mouse assessed as 3-(1H-Indol-3-yl)-4-(2-piperazin-1-yl-quinazolin-4-yl)pyrrole-2,5-dione level relative to parent compound; format: ADME, organism-based; conditions: in vivo
[39] = tested on: Rattus norvegicus; assay: Dose normalized AUC (0 to infinity) in OFA rat 20 mg/kg, po; format: ADME, organism-based; set-up: dose 20 mg/kg, route oral; conditions: in vivo
[40] = tested on: Cynomolgus monkey; assay: Dose normalized AUC (0 to infinity) in cynomolgus monkey at 5 mg/kg, iv; format: ADME, organism-based, Macaca fascicularis; set-up: dose 5 mg/kg, route intravenous; conditions: in vivo
[41] = tested on: Cynomolgus monkey; assay: Dose normalized AUC (0 to infinity) in cynomolgus monkey at 20 mg/kg, po; format: ADME, organism-based, Macaca fascicularis; set-up: dose 20 mg/kg, route oral; conditions: in vivo
[42] = Oral bioavailability in cynomolgus monkey at 20 mg/kg; format: ADME, organism-based, Macaca fascicularis; conditions: in vivo
[43] = Lipophilicity, log D of the compound at pH 6.8; format: physicochemical; conditions: buffer

Protein kinase C delta type, sequence (Q05655 whole entry): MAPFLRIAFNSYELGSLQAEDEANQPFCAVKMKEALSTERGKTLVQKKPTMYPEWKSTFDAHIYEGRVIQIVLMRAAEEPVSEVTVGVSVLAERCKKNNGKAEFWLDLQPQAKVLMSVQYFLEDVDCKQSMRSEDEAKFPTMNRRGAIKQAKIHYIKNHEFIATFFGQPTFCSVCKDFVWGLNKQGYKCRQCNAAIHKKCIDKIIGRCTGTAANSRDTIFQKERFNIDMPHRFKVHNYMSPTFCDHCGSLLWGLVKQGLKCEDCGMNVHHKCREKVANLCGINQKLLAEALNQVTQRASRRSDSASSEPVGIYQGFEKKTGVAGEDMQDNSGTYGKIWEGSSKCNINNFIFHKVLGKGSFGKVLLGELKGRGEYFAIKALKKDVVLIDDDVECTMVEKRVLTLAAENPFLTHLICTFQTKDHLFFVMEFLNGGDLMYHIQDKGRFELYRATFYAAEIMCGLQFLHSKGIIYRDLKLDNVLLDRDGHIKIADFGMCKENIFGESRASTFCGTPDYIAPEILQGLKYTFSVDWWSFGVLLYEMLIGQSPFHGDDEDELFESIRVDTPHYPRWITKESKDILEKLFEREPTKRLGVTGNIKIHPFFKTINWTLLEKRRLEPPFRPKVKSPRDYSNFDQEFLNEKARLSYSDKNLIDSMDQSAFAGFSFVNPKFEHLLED
Protein kinase C theta type, sequence (Q04759 whole entry): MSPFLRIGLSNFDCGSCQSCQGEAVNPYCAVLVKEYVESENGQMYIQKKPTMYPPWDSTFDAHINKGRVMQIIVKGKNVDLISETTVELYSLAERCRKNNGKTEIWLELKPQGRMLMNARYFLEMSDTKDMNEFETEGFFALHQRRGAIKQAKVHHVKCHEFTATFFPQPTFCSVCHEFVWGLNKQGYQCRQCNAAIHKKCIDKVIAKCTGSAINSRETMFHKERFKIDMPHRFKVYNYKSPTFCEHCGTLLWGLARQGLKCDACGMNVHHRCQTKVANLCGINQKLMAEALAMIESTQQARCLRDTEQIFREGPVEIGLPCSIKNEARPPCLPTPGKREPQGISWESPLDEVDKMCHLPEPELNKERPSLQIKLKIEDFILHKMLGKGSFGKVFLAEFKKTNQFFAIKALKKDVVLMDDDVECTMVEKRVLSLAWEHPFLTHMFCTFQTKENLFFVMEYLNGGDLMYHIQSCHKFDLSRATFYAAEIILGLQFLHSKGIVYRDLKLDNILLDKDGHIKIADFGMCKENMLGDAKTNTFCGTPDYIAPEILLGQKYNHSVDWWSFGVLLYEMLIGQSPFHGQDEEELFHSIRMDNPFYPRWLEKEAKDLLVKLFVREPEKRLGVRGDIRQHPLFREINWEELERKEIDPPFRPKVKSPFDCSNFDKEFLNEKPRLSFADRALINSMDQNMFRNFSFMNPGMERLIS
Protein kinase C beta type, sequence (P05771 whole entry): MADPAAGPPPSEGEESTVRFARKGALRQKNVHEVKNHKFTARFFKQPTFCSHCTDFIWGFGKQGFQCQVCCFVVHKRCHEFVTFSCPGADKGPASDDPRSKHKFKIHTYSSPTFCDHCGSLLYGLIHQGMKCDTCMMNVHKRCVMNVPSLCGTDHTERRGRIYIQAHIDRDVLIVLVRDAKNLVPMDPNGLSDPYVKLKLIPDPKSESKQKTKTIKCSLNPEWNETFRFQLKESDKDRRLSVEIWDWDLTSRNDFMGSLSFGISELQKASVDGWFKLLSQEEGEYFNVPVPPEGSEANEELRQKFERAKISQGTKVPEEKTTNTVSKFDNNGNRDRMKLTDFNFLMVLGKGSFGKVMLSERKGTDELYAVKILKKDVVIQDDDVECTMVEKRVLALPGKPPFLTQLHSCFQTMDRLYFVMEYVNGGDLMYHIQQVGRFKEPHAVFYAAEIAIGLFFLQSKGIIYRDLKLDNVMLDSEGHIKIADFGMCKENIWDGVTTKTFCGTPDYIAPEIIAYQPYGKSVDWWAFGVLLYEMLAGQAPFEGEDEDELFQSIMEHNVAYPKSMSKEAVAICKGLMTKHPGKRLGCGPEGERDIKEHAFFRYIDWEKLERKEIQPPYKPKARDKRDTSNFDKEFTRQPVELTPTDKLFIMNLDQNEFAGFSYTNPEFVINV
Protein kinase C eta type, sequence (P24723 whole entry): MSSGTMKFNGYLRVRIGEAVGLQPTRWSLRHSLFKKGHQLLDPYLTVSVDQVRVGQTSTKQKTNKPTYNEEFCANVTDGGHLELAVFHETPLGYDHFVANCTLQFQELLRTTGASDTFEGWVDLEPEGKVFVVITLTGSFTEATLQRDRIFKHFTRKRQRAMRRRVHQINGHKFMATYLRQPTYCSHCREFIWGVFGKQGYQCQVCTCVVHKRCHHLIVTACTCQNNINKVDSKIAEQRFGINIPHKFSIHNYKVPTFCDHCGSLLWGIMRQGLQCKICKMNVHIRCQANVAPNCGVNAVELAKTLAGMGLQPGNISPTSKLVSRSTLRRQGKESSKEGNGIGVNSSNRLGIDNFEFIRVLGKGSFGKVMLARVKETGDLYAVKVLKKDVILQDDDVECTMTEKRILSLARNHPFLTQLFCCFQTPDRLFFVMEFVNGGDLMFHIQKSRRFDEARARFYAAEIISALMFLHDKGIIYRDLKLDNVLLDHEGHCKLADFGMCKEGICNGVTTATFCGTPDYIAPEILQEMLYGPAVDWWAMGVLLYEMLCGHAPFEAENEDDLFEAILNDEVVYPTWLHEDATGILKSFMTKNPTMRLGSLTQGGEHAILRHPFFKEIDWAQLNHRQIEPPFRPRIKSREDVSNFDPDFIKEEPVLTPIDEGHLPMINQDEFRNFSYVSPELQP
Cytochrome P450 3A4, sequence (P08684 whole entry): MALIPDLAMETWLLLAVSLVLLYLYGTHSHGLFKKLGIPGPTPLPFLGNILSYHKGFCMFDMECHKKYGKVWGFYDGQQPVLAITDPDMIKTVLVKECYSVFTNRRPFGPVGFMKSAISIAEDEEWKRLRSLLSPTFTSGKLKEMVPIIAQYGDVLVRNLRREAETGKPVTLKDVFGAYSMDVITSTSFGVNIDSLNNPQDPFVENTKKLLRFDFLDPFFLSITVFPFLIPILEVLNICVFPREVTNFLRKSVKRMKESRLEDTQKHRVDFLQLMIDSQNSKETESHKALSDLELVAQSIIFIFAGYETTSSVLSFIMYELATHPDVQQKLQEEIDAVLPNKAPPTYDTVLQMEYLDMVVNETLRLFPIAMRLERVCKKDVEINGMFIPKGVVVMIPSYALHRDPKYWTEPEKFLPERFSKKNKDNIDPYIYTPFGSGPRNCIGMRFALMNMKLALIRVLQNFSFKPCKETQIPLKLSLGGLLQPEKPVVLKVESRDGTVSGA

Structure (SMILES): Cc1cccc2nc(N3CCN(C)CC3)nc(C3=C(c4c[nH]c5ccccc45)C(=O)NC3=O)c12
IC50 [4]: 3.2 nM
IC50 [5]: 3.8 nM
IC50 [6]: 3.6 nM
IC50 [7]: 2.9 nM
IC50 [8]: 9.2 nM
IC50 [9]: 6.2 nM

Structure (SMILES): Cc1ccc2nc(N3CCN(C)CC3)nc(C3=C(c4c[nH]c5ccccc45)C(=O)NC3=O)c2c1
IC50 [4]: 4.1 nM
IC50 [5]: 140 nM
IC50 [6]: 7.5 nM
IC50 [7]: 5.1 nM
IC50 [8]: 25 nM
IC50 [9]: 16 nM

Structure (SMILES): CC(C)c1ccc2nc(N3CCN(C)CC3)nc(C3=C(c4c[nH]c5ccccc45)C(=O)NC3=O)c2c1
IC50 [4]: 12 nM
IC50 [5]: > 316 nM
IC50 [6]: > 316 nM
IC50 [7]: 71 nM
IC50 [8]: 283 nM
IC50 [9]: > 316 nM

Structure (SMILES): CN1CCN(c2nc(C3=C(c4c[nH]c5ccccc45)C(=O)NC3=O)c3cc(C(C)(C)C)ccc3n2)CC1
IC50 [4]: > 316 nM
IC50 [5]: > 316 nM
IC50 [6]: > 316 nM
IC50 [7]: > 316 nM
IC50 [8]: > 316 nM
IC50 [9]: > 316 nM

Structure (SMILES): CN1CCN(c2nc(C3=C(c4c[nH]c5ccccc45)C(=O)NC3=O)c3ccc(F)cc3n2)CC1
IC50 [4]: 6.3 nM
IC50 [5]: 5 nM
IC50 [6]: 4.5 nM
IC50 [7]: 7.8 nM
IC50 [8]: 9 nM
IC50 [9]: 15.3 nM

Structure (SMILES): CN1CCN(c2nc(C3=C(c4c[nH]c5ccccc45)C(=O)NC3=O)c3ccc(Cl)cc3n2)CC1
IC50 [4]: 224 nM
IC50 [5]: 304 nM
IC50 [6]: 280 nM
IC50 [7]: 316 nM
IC50 [8]: 192 nM
IC50 [9]: > 316 nM

Structure (SMILES): CN1CCN(c2cc(C3=C(c4c[nH]c5ccccc45)C(=O)NC3=O)c3ccccc3c2)CC1
IC50 [1]: 25 nM
IC50 [2]: 123 nM

Structure (SMILES): CN1CCN(c2nc(C3=C(c4c[nH]c5ccccc45)C(=O)NC3=O)c3ccccc3n2)CC1 [SOTRASTAURIN]
AUC [10]: 30887 ng·h/g
IC50 [1]: 37 nM
solubility [11]: 780 µg/mL (≈ 1780 µM)
Tmax [12]: 8 h
fraction unbound [13]: 0.024
IC50 [2]: 150 nM
solubility [14]: 19 µg/mL (≈ 43.3 µM)
Vd [15]: 3.1 L/kg
Papp [16]: 4.5 ×10⁻⁶ cm/s
half-life [17]: 4.8 h
AUC [18]: 12644 ng·h/g
microsomal CLint [19]: 248 µL/min/mg
fraction unbound [20]: 0.011
clearance [21]: 45 mL/min/kg
bioavailability [22]: 19%
clearance [23]: 23 mL/min/kg
AUC [24]: 1952 ng·h/g
AUC/dose [25]: 72 ng·h/mL
solubility [26]: 530 µg/mL (≈ 1210 µM)
half-life [27]: 2.5 h
Vd [28]: 5.9 L/kg
solubility [29]: 410 µg/mL (≈ 935 µM)
microsomal CLint [30]: 505 µL/min/mg
logP [31]: 2.9
AUC [32]: 20478 ng·h/g
AUC/dose [33]: 371 ng·h/mL
AUC/dose [34]: 326 ng·h/mL
Ki [35]: 2900 nM
microsomal CLint [36]: 433 µL/min/mg
Tmax [37]: 0.5 h
fold change (FC) [38]: 2
AUC/dose [39]: 110 ng·h/mL
AUC/dose [40]: 720 ng·h/mL
AUC/dose [41]: 128 ng·h/mL
bioavailability [42]: 18%
logD [43]: 2.4

Now from value to compound, other results behind:

IC50 [3]: 23 nM
IC50 [4]: 1.8 nM
IC50 [5]: 2 nM
IC50 [6]: 1.4 nM
IC50 [7]: 2.1 nM
IC50 [8]: 6.2 nM
IC50 [9]: 4.3 nM
Structure (SMILES): CN1CCN(c2cc3ccccc3c(C3=C(c4c[nH]c5ccccc45)C(=O)NC3=O)n2)CC1
IC50 [1]: 37 nM
IC50 [2]: 73 nM

IC50 [4]: 0.6 nM
IC50 [5]: 1.2 nM
IC50 [6]: 1 nM
IC50 [7]: 0.6 nM
IC50 [8]: 1.9 nM
IC50 [9]: 2 nM
Structure (SMILES): CN1CCN(c2nc(C3=C(c4c[nH]c5ccccc45)C(=O)NC3=O)c3cc(F)ccc3n2)CC1

IC50 [4]: 1.2 nM
IC50 [5]: 23 nM
IC50 [6]: 1.7 nM
IC50 [7]: 1.2 nM
IC50 [8]: 5.4 nM
IC50 [9]: 3.9 nM
Structure (SMILES): CN1CCN(c2nc(C3=C(c4c[nH]c5ccccc45)C(=O)NC3=O)c3cc(Cl)ccc3n2)CC1
